The text below walks through data of patent US20240294489A1 (Captor Therapeutics S.A., priority 2020, published 2024).

Common to all, as to type: cell-based
For assay [1], the target named is T1, SALL4 (Homo sapiens, UniProt Q96SW2+Q9UJQ4).
T1 construct: SALL4 degradation in the Kelly cell line was investigated; endogenous in cells; host or cells: Kelly
The assay can be described thus: SALL4 degradation assay, Kelly cell line (Western blot densitometry). The settings on record: Kelly cells, 100 nM, 24 h, average from n ≥ 2 experiments. How it is done:
(§1) Cells were seeded on 6- or 12-well plates, and the compounds to be tested were added at the desired concentration range. […] After 24 h incubation (37° C., 5% CO2), cells were harvested, washed and cell lysates were prepared using RIPA lysis buffer. The amount of protein was determined via BCA assay, and the appropriate quantity was then loaded on the precast gel for the protein separation. After primary and secondary Ab staining, the membranes were washed and signals developed. The densitometry analysis was implemented to obtain the numeric values used later in the protein level evaluation process.
For orientation: In western blotting, separated proteins are transferred to a membrane and probed.

Assay [2] addresses T2, Aiolos (IKZF3) (Homo sapiens, UniProt Q96SW2+Q9UKT9).
T2 construct: Aiolos degradation in the H929 cell line was investigated; endogenous in cells; host or cells: H929
The assay can be described thus: Aiolos degradation assay, H929 cell line. The settings on record: H929 cells, 20 μM, 24 h. How it is done:
as §1

In assay [3] the test system is Hep3B cells. The assay can be described thus: Cell viability CTG assay, Hep3B. The settings on record: Homo sapiens, 72 h, 0.001-50 μM, read-out: Hep3B Geomean absolute IC50 by molecule, 72 H. The gist of the method: (§2)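 Cells exposed to compound at 0.25% v/v DMSO for 72 h (37° C., 5% CO2). ATP quantified by CellTiter-Glo luminescence, normalized to DMSO control. Absolute IC50 (T/C=50%) by non-linear regression on duplicate means; geometric mean used for averages.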

Assay [4] relates to H929 cells. As to the kind of experiment: Cell viability CTG assay, H929. The settings on record: H929, 72 h, 0.001-50 μM. Also on record: key to Geomean absolute IC50 by molecule, 72 H: Inactive represents IC50 > 50 μM; C represents 50 μM ≥ IC50 > 5 μM. The procedure, abridged:
as §2

The test system of assay [5] is KG-1. The assay can be described thus: Cell viability, additional cell lines (CellTiter-Glo), KG-1. The settings on record: Homo sapiens, KG-1, 72 h. How it is done:
(§3) Tumor cells are grown at 37° C. in a humidified atmosphere with 5% CO2 in RPMI 1640 medium, supplemented with 10% (v/v) fetal calf serum and 50 μg/ml gentamicin for up to 20 passages, and are passaged once or twice weekly.
(§4) Cells are harvested from exponential phase cultures, counted and plated in 96 well flat-bottom microtiter plates at a cell density depending on the cell line's growth rate (4,000-20,000 cells/well depending on the cell line's growth rate, up to 60,000 for hematological cancer cell lines) in RPMI 1640 medium supplemented with 10% (v/v) fetal calf serum and 50 μg/ml gentamicin (140 μl/well). Cultures are incubated at 37° C. and 5% CO2 in a humidified atmosphere. After 24 h, 10 μl of test compounds or control medium are added and left on the cells for another 72 h. Compounds are serially diluted in DMSO, transferred in cell culture medium, and added to the assay plates by using a Tecan Freedom EVO 200 robotic platform. The DMSO concentration is kept constant at 0.3% v/v across the assay plate. Viability of cells is quantified by the CellTiter-Glo® cell viability assay (Promega G8462). After incubation of cells, 100 μl of CellTiter-Glo® One Solution Assay reagent are added to each well. Plates are shaken for 2 minutes to induce cell lysis and incubated for 20 minutes prior to reading luminescence (LU) by using the EnVision® Xcite multilabel plate reader (Perkin Elmer). […]
In general terms: ATP-based viability assays read luminescence as a measure of living cells.

Assay [6] relates to MOLT-3. As to the kind of experiment: Cell viability, additional cell lines (CellTiter-Glo), MOLT-3. The settings on record: Homo sapiens, MOLT-3, 72 h. How it is done:
as §3, §4

Assay [7] has as its system MOLT-4. The assay can be described thus: Cell viability, additional cell lines (CellTiter-Glo), MOLT-4. The settings on record: Homo sapiens, MOLT-4, 72 h. How it is done: as §3, §4
Assay [8] relates to HL-60. The assay can be described thus: Cell viability, additional cell lines (CellTiter-Glo), HL-60. The settings on record: Homo sapiens, HL-60, 72 h; read-out: Absolute IC50. How it is done:
as §3, §4

The test system of assay [9] is Kasumi-1. The assay can be described thus: Cell viability, additional cell lines (CellTiter-Glo), Kasumi-1. The settings on record: Homo sapiens; Kasumi-1, 72 h; read-out: Absolute IC50. On the procedure:
as §3, §4

Assay [10] relates to NOMO-1. The assay can be described thus: Cell viability, additional cell lines (CellTiter-Glo), NOMO-1. The settings on record: Homo sapiens, NOMO-1, 72 h; read-out: Absolute IC50. How it is done: as §3, §4
The subject of assay [11] is OCI-AML2. The assay can be described thus: Cell viability, additional cell lines (CellTiter-Glo), OCI-AML2. The settings on record: Homo sapiens, OCI-AML2, 72 h; read-out: Absolute IC50. How it is done: as §3, §4
Assay [12] has as its system PL-21. The assay can be described thus: Cell viability, additional cell lines (CellTiter-Glo), PL-21. The settings on record: PL-21, 72 h; read-out: Absolute IC50. How it is done:
as §3, §4

Assay [13] has as its system SU-DHL-1. The assay can be described thus: Cell viability, additional cell lines (CellTiter-Glo), SU-DHL-1. The settings on record: Homo sapiens, SU-DHL-1, 72 h; read-out: Absolute IC50. On the procedure: as §3, §4
For assay [14], the system named is TMD8. As to the kind of experiment: Cell viability, additional cell lines (CellTiter-Glo), TMD8. The settings on record: Homo sapiens, TMD8, 72 h; read-out: Absolute IC50. On the procedure: as §3, §4
Assay [15] has as its system LP-1. The assay can be described thus: Cell viability, additional cell lines (CellTiter-Glo), LP-1. The settings on record: Homo sapiens, LP-1, 72 h; read-out: Absolute IC50. How it is done:
as §3, §4

The mark [16] stands for this setting: 9.5 μM, read-out: Test/Control viability at 9.5 μM.

Broadly, the IC50 is the midpoint of a concentration-inhibition curve.

SMILES strings stand for the structures.

T2 sequence (Q9UKT9 whole entry): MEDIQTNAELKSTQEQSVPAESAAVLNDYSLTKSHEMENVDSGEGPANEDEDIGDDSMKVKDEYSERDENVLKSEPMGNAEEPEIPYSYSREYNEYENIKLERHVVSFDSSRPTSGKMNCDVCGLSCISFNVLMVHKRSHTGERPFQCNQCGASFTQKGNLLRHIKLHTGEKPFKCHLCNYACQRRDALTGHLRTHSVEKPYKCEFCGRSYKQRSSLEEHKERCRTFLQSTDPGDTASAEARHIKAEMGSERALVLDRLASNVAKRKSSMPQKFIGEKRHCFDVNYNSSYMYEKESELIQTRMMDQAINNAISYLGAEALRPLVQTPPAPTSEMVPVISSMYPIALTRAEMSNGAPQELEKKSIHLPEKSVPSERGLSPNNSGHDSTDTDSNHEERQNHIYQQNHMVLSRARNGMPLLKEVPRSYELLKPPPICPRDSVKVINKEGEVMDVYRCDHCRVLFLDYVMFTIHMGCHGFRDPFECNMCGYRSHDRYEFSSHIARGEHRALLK
T2 sequence (Q96SW2 whole entry): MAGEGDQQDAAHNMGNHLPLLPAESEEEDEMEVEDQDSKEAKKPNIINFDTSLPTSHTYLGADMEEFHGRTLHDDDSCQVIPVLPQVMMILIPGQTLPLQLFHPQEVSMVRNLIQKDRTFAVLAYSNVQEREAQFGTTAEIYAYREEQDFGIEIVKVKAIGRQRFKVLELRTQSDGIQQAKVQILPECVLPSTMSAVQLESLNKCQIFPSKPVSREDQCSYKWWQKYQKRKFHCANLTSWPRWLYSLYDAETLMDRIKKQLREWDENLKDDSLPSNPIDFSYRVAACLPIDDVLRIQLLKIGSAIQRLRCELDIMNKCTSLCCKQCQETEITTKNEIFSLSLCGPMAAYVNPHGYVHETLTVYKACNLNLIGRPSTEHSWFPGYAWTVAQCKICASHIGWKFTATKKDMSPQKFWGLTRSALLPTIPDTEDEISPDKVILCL
T2 sequence (Q16531 whole entry partner): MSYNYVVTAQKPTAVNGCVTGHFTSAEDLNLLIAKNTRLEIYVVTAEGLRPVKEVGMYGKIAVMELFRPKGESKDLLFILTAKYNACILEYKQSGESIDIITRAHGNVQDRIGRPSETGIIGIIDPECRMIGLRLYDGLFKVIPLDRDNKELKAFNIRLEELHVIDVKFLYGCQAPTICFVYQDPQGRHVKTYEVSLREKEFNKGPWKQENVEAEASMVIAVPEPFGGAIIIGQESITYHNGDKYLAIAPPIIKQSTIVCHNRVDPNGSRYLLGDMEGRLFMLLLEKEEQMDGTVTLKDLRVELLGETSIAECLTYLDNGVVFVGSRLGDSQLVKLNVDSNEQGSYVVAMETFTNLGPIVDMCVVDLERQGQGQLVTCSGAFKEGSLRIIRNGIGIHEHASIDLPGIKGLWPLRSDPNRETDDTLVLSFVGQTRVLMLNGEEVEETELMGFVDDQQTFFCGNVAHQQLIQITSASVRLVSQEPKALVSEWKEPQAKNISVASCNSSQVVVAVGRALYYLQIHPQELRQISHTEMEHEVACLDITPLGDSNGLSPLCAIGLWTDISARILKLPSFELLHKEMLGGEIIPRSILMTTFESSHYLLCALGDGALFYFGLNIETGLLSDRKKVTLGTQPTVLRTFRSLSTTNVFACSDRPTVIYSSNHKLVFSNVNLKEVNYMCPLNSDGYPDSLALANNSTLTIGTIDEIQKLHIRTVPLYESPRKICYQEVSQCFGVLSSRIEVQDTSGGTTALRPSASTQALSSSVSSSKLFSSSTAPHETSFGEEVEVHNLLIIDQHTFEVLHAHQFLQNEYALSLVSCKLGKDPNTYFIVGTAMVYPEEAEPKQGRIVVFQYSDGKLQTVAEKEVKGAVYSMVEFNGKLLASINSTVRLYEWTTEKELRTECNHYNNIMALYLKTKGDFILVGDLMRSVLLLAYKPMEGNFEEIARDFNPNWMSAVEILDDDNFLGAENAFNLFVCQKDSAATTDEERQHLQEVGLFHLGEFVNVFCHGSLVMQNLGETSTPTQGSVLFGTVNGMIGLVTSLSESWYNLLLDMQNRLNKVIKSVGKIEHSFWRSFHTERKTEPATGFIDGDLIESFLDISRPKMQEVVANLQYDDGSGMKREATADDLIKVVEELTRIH
T1 sequence (Q9UJQ4 whole entry): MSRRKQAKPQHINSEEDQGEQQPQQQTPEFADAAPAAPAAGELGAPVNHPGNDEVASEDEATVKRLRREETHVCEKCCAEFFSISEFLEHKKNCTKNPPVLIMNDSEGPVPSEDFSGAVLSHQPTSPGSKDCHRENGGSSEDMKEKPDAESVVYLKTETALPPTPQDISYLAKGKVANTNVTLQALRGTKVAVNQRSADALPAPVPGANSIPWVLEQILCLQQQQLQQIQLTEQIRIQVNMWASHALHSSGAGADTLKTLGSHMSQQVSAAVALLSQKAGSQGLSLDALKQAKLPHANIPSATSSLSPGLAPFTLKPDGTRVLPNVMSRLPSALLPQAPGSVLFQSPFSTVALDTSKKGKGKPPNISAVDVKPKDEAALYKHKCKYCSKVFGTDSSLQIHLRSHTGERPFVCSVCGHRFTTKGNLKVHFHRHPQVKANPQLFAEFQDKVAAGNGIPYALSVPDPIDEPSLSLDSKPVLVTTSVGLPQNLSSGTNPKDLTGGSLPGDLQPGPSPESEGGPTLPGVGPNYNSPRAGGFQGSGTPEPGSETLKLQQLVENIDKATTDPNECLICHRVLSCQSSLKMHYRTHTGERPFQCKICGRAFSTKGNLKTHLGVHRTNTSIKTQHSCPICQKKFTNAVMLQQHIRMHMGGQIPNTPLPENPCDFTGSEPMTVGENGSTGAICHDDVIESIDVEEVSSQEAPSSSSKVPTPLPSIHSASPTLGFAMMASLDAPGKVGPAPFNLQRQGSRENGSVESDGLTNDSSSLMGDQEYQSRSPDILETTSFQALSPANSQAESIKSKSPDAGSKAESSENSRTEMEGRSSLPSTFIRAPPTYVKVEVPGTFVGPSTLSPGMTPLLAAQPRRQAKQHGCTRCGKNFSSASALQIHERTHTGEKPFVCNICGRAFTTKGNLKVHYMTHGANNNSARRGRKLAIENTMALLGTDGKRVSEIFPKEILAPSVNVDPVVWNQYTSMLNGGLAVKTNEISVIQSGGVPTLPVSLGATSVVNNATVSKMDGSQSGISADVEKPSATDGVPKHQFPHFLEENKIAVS
T1 sequence (Q96SW2 whole entry): as the sequence (Q96SW2 whole entry) above
T1 sequence (Q16531 whole entry partner): as the sequence (Q16531 whole entry partner) above

As for `NCc1ccc2c(c1)CN(C1CCC(=O)NC1=O)C2=O` (stereo not drawn) [Compound 1, 3-(5-(aminomethyl)-1-oxoisoindolin-2-yl)piperidine-2,6-dione], the “% of SALL4 protein reduction” value in assay [1] is recorded as more than 80%. For the same compound, the “% of IKZF3 protein reduction” value in [2] was “C (C represents 0-24% of IKZF1 protein reduction)”. Moreover, the IC50 in assay [3] is not above 0.1 µM; in assay [5] (read-out: Absolute IC50), not above 0.1 µM; in [6] (read-out: Absolute IC50), not below 30 µM; in assay [7] (read-out: Absolute IC50), not below 30 µM; in [8], more than 30 µM; in [9], more than 30 µM. Further, the IC50 in [10], in [11], in [12], in [13], in assay [14] and in assay [15] was more than 30 µM in each case. The “Geomean absolute IC50 by molecule, 72 H” value in [4] was “Inactive”. The viability at 9.5 µM in [5] (setting [16]) is not above 30%; in [6] (setting [16]), not above 60%; in assay [7] (setting [16]), not above 60%.
